Laboratory results as given in PMC9033183 (RSC Advances, 2021).
“And” between values parts separate entries of the source, which are not always exact repeats. Equal entries are not always repeated. “Also recorded” adds a separate entry of the source.

How the values were obtained:
aldose reductase (ALR2) = aldose reductase (ALR2) (Bos taurus, UniProt P16116); assay: Aldose reductase; assay type: biochemical, calf; settings: for selectivity for ALR2 over ALR1, result in words: ALR2 IC50 compared with ALR1 percent inhibition
[1] = biological target: aldehyde reductase (ALR1) (Bos taurus, UniProt Q3ZCJ2); assay: Aldehyde reductase; assay type: biochemical, calf; settings: for IC50: ALR1 IC50(μM) ± SEM, enzyme partially purified from calf kidneys, triplicate
Chain of aldehyde reductase (ALR1) (Q3ZCJ2 whole entry): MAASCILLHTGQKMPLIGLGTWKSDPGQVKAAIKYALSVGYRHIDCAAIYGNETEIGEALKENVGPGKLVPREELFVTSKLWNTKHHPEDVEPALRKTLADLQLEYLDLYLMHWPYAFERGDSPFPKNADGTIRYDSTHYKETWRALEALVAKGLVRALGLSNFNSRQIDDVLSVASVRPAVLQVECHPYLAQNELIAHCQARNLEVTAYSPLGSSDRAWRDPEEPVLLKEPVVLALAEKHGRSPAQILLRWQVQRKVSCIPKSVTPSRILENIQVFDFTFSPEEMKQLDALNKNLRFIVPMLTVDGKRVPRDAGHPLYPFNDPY

Structure (SMILES)	ALR2 inhibitory activity, result in words (aldose reductase (ALR2))	ALR1 inhibitory activity, result in words [1]	IC50 [1]	selectivity for ALR2 over ALR1, result in words (aldose reductase (ALR2))
COc1cccc(-n2c(-c3ccc(Br)cc3)cs/c2=N/N=C(/C)c2ccc3c(c2)NC(=O)CO3)c1 [Compound 5b, 6-((E)-1-((Z)-(4-(4-bromophenyl)-3-(3-methoxyphenyl)thiazol-2(3H)-ylidene) hydrazono)ethyl)-2H-benzo[b][1,4]oxazin-3(4H)-one]	weak activity	weak activity	–	–
COc1cccc(-n2c(-c3ccc([N+](=O)[O-])cc3)cs/c2=N/N=C(/C)c2ccc3c(c2)NC(=O)CO3)c1 [Compound 5f, 6-((E)-1-((Z)-(3-(3-methoxyphenyl)-4-(4-nitrophenyl)thiazol-2(3H)-ylidene) hydrazono)ethyl)-2H-benzo[b][1,4]oxazin-3(4H)-one]	active inhibitors	active inhibitors	3.13 µM and 3.24 µM	–
COc1cccc(-n2c(-c3ccc(Cl)cc3)cs/c2=N/N=C(/C)c2ccc3c(c2)NC(=O)CO3)c1 [Compound 5j, 6-((E)-1-((Z)-(4-(4-chlorophenyl)-3-(3-methoxyphenyl)thiazol-2(3H)-ylidene) hydrazono)ethyl)-2H-benzo[b][1,4]oxazin-3(4H)-one]	weak activity	weak activity	–	–
CC(=N/N=c1\scc(-c2ccc(Br)cc2)n1-c1ccccc1)C12CC3CC(CC(C3)C1)C2 [Compound 6a, (2Z)-2-((1-(adamantan-1-yl)ethylidene)hydrazono)-4-(4-bromophenyl)-3-phenyl-2,3-dihydrothiazole]	active inhibitors	active inhibitors	3.29 ± 1.47 µM	–
CC(=N/N=c1\scc(-c2ccc(Br)cc2)n1-c1cccc2ccccc12)C12CC3CC(CC(C3)C1)C2 [Compound 6b, (2Z)-2-((1-(adamantan-1-yl)ethylidene)hydrazono)-4-(4-bromophenyl)-3-(naphthalen-1-yl)-2,3-dihydrothiazole]	active inhibitors	active inhibitors	4.93 ± 1.86 µM	–
CC(=N/N=c1\scc(-c2ccc(Br)cc2)n1-c1ccccc1C)C12CC3CC(CC(C3)C1)C2 [Compound 6c, (2Z)-2-((1-(adamantan-1-yl)ethylidene)hydrazono)-4-(4-bromophenyl)-3-(o-tolyl)-2,3-dihydrothiazole]	active inhibitors	active inhibitors	4.07 ± 2.35 µM	–
CC(=N/N=c1\scc(-c2ccc(Br)cc2)n1-c1c(C)cccc1C)C12CC3CC(CC(C3)C1)C2 [Compound 6d, (2Z)-2-((1-(adamantan-1-yl)ethylidene)hydrazono)-4-(4-bromophenyl)-3-(2,6-dimethylphenyl)-2,3-dihydrothiazole]	–	–	–	selective ALR2 inhibitors; also recorded: good inhibitory activity and selectively against ALR2
CC(=N/N=c1\scc(-c2ccc(Cl)cc2)n1Cc1ccccc1)C12CC3CC(CC(C3)C1)C2 [Compound 6e, (2Z)-2-((1-(adamantan-1-yl)ethylidene)hydrazono)-3-benzyl-4-(4-chlorophenyl)-2,3-dihydrothiazole]	–	–	–	selective ALR2 inhibitors; also recorded: good inhibitory activity and selectively against ALR2
CC(=N/N=c1\scc(-c2ccc(Cl)cc2)n1-c1c(C)cccc1C)C12CC3CC(CC(C3)C1)C2 [Compound 6f, (2Z)-2-((1-(adamantan-1-yl)ethylidene)hydrazono)-4-(4-chlorophenyl)-3-(2,6-dimethylphenyl)-2,3-dihydrothiazole]	–	–	–	selective ALR2 inhibitors; also recorded: good inhibitory activity and selectively against ALR2
C/C(=N/N=c1/scc(-c2ccc(Br)cc2)n1-c1ccccc1)c1ccc2c(c1)OCCO2 [Compound 7a, (Z)-4-(4-bromophenyl)-2-((E)-(1-(2,3-dihydrobenzo[b][1,4]dioxin-6-yl)ethylidene) hydrazono)-3-phenyl-2,3-dihydrothiazole]	–	–	–	selective ALR2 inhibitors
C/C(=N/N=c1/scc(-c2ccc(Br)cc2)n1Cc1ccccc1)c1ccc2c(c1)OCCO2 [Compound 7b, (Z)-3-benzyl-4-(4-bromophenyl)-2-((E)-(1-(2,3-dihydrobenzo[b][1,4]dioxin-6-yl)ethylidene)hydrazono)-2,3-dihydrothiazole]	–	–	–	selective ALR2 inhibitors; also recorded: excellent selectivity; also recorded: considerably selective activity against ARL2; also recorded: significantly selective
C/C(=N/N=c1/scc(-c2ccc(Br)cc2)n1-c1c(C)cccc1C)c1ccc2c(c1)OCCO2 [Compound 7c, (Z)-4-(4-bromophenyl)-2-((E)-(1-(2,3-dihydrobenzo[b][1,4]dioxin-6-yl)ethylidene) hydrazono)-3-(2,6-dimethylphenyl)-2,3-dihydrothiazole]	–	–	–	selective ALR2 inhibitors
COc1cccc(-n2c(-c3ccc([N+](=O)[O-])cc3)cs/c2=N/N=C\c2c[nH]c3ccccc23)c1 [Compound 8f, (Z)-2-((E)-((1H-indol-3-yl)methylene)hydrazono)-3-(3-methoxyphenyl)-4-(4-nitrophenyl)-2,3-dihydrothiazole]	–	–	–	selective ALR2 inhibitor

Continued, in another order:

ALR2 inhibitory activity, result in words (aldose reductase (ALR2))	ALR1 inhibitory activity, result in words [1]	IC50 [1]	Structure (SMILES)	selectivity for ALR2 over ALR1, result in words (aldose reductase (ALR2))
active inhibitors	active inhibitors	3.14 ± 0.41 µM	C/C(=N/N=c1/scc(-c2ccc(Cl)cc2)n1-c1ccccc1)c1ccc2c(c1)OCCO2 [Compound 7g, (Z)-4-(4-chlorophenyl)-2-((E)-(1-(2,3-dihydrobenzo[b][1,4]dioxin-6-yl)ethylidene) hydrazono)-3-phenyl-2,3-dihydrothiazole]	–
active inhibitors	active inhibitors	2.94 ± 1.73 µM	C/C(=N/N=c1/scc(-c2ccc(Cl)cc2)n1-c1ccc(F)cc1)c1ccc2c(c1)OCCO2 [Compound 7h, (Z)-4-(4-chlorophenyl)-2-((E)-(1-(2,3-dihydrobenzo[b][1,4]dioxin-6-yl)ethylidene) hydrazono)-3-(4-fluorophenyl)-2,3-dihydrothiazole]	–
active inhibitors	active inhibitors	2.2 ± 0.92 µM	C/C(=N/N=c1/scc(-c2ccc(Cl)cc2)n1Cc1ccccc1)c1ccc2c(c1)OCCO2 [Compound 7i, (Z)-3-benzyl-4-(4-chlorophenyl)-2-((E)-(1-(2,3-dihydrobenzo[b][1,4]dioxin-6-yl)ethylidene)hydrazono)-2,3-dihydrothiazole]	–
active inhibitors	active inhibitors	2.94 ± 1.34 µM	O=[N+]([O-])c1ccc(-c2cs/c(=N/N=C\c3c[nH]c4ccccc34)n2Cc2ccccc2)cc1 [Compound 8e, (Z)-2-((E)-((1H-indol-3-yl)methylene)hydrazono)-3-benzyl-4-(4-nitrophenyl)-2,3-dihydrothiazole]	–
